The record followed here is patent publication US20020032214A1, “Pharmaceutical composition comprising a compound having anti-xa activity and a platelet aggregation antagonist compound” (priority 1996, published 2002).

Bounds are passed on as bounds.

This data set is described as follows: Template bleeding time in the canine model of unstable angina. The following applies: high-dose of the platelet aggregation antagonist compound, i.v., dogs. It counts as in vivo, Mongrel dogs. As for the experimental part: Mongrel dogs of either sex (15-21 kg) are anesthetized with sodium pentobarbital (30 mg/kg, i.v., with supplements given as needed), intubated, and ventilated using a Harvard respirator (Harvard Apparatus. S. Natick, Mass.). A tri-lumen catheter (SAFEDWELLplus, Becton Dickinson, Sandy, Utah) is placed in the right femoral vein for the administration of test agents and supplemental anesthesia. The right femoral artery is cannulated for measurement of arterial blood pressure and for obtaining blood samples.
Thirty dogs are assigned to one of six adjunctive treatment groups. […]
After consistent CFRs are established for at least 20 minutes, compounds are administered as described above and blood flow is monitored during the one hour infusion period. […] Mean arterial blood pressure, heart rate and EKG are recorded for the duration of the protocol (Grass polygraph, Model 7D, Grass Instruments, Mass.).
Template bleeding time measurements are obtained at the same time points as the blood samples, as mentioned previously. Template bleeding time is measured after a uniform incision is made on the mucous membrane of the inner upper lip with a Surgicutt® automated incision device (ITC, Edison, N.J.). […] Template bleeding time is measured from the moment of the incision until the blood no longer stained the blotting paper. […]

As for `CCCCS(=O)(=O)N[C@@H](Cc1ccc(OCCCCC2CCNCC2)cc1)C(=O)O` [BSPBPA, N-(n-butylsulfonyl)-4-(piperidin-4-ylbutyloxy)-L-phenylalanine], the “increase in template bleeding time” value is on record as over 5 fold.
